From patent publication US8501708B2, “Adenosine compounds and their use thereof” (Inotek Pharmaceuticals Corporation, priority 2011, dated 2013)

How the values were obtained:
[1] = biological target: human recombinant A3 adenosine receptor (Homo sapiens (Human), UniProt P0DMS8); test: Adenosine receptor binding, displacement of specific [3H]NECA binding; conditions: [3H]NECA displacement, CHO cells stably transfected with human recombinant A3 adenosine receptor
Text: (§1) The compounds were studied in binding assays to determine their selectivity and potency to the A1, A2a and A3 adenosine receptors.

[2] = biological target: human recombinant A2A adenosine receptor (Homo sapiens (Human), UniProt P29274); test: as above; conditions: [3H]NECA displacement, CHO cells stably transfected with human recombinant A2A adenosine receptor
human recombinant A2A adenosine receptor, sequence (P29274 whole entry): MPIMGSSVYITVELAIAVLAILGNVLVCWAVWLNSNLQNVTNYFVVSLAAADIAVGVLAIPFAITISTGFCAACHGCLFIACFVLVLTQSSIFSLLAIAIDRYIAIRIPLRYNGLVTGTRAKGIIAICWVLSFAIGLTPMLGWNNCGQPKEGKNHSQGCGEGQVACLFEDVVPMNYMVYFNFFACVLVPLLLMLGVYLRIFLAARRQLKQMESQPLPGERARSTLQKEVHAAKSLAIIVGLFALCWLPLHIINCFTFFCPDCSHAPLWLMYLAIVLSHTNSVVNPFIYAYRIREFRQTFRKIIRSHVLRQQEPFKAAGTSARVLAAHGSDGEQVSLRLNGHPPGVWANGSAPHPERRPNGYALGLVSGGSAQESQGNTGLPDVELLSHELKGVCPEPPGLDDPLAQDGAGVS
Text: as §1

[3] = biological target: human recombinant A1 adenosine receptor (Homo sapiens (Human), UniProt P30542); test: Adenosine receptor binding, displacement of specific [3H]CCPA binding; conditions: [3H]CCPA displacement, CHO cells stably transfected with human recombinant A1 adenosine receptor
human recombinant A1 adenosine receptor, sequence (P30542 whole entry): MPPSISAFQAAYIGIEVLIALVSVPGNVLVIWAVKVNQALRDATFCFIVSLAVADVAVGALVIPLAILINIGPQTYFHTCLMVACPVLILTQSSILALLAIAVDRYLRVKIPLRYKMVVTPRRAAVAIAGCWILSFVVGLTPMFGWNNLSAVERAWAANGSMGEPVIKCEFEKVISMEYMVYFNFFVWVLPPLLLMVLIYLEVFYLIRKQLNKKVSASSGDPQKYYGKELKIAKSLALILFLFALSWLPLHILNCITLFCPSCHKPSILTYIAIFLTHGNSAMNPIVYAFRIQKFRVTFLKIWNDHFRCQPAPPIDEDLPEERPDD
Text: as §1

[4] = test system: ocular normotensive Dutch-Belted rabbits; test: Changes in intraocular pressure after topical administration to the eye; assay type: in vivo, rabbit; conditions: for changes in IOP relative to baseline after dosing (in words): 0-6 hours
Procedure: The study involved groups of eight rabbits and the rabbits were acclimated for two days before they received a single dose in either the right eye or left eye of the HPCD control. The IOP of the groups of rabbits were recorded at 0, 1, 2, 4 and 6 hours after dosing of the control.

human recombinant A3 adenosine receptor, sequence (P0DMS8 whole entry): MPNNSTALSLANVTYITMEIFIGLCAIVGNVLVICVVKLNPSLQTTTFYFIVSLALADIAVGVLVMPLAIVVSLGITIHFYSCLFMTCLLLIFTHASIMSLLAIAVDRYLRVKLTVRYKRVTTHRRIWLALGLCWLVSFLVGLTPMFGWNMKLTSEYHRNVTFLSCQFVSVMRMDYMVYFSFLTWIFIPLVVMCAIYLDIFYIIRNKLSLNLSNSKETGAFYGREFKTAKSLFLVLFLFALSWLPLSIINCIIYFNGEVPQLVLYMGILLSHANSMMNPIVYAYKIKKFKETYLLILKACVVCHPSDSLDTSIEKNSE

Row | Structure (SMILES) | Ki [1] | Ki [2] | Ki [3] | return of IOP to baseline levels, time post dosing ([4]; topical single dose 200 mcg) | reduction of IOP ([4]; topical single dose 200 mcg in HPCD formulation, 2 hours post dosing) | changes in IOP relative to baseline after dosing (in words) ([4]; topical single dose 200 mcg)
1 | OC[C@H]1OC(n2cnc3c(NC4CCCCC4OCc4ccccc4)ncnc32)[C@H](O)[C@@H]1O (stereo partly shown) [Compound 5] | > 100000 nM |  |  |  |  | 
2 | Cc1ccccc1CO[C@H]1CCC[C@@H]1Nc1ncnc2c1ncn2[C@@H]1O[C@H](CO)[C@@H](O)[C@H]1O [Compound 7, (2R,3S,4R,5R)-2-(hydroxymethyl)-5-(6-((1S,2S)-2-(2-methylbenzyloxy)cyclopentylamino)-9H-purin-9-yl)tetrahydrofuran-3,4-diol] | 1570 nM | 7330 nM | 12.6 nM |  |  | 
3 | Cc1ccccc1CO[C@@H]1CCC[C@H]1Nc1ncnc2c1ncn2[C@@H]1O[C@H](CO)[C@@H](O)[C@H]1O [Compound 18, (2R,3S,4R,5R)-2-(hydroxymethyl)-5-(6-((1R,2R)-2-(2-methylbenzyloxy)cyclopentylamino)-9H-purin-9-yl)tetrahydrofuran-3,4-diol] | 5100 nM | 422 nM | 2.28 nM | 6 h | 20% | 
4 | OC[C@H]1O[C@@H](n2cnc3c(N[C@@H]4CCC[C@H]4OCc4cccc(F)c4)ncnc32)[C@H](O)[C@@H]1O [Compound 19, (2R,3R,4S,5R)-2-(6-((1R,2R)-2-(3-fluorobenzyloxy)cyclopentylamino)-9H-purin-9-yl)-5-(hydroxymethyl)tetrahydrofuran-3,4-diol] | 4040 nM | 2550 nM |  |  |  | 
5 | OC[C@H]1O[C@@H](n2cnc3c(N[C@H]4CCC[C@@H]4OCc4cccc(F)c4)ncnc32)[C@H](O)[C@@H]1O [Compound 8, (2R,3R,4S,5R)-2-(6-((1S,2S)-2-(3-fluorobenzyloxy)cyclopentylamino)-9H-purin-9-yl)-5-(hydroxymethyl)tetrahydrofuran-3,4-diol] | 1630 nM | 5540 nM |  |  |  | 
6 | OC[C@H]1OC(n2cnc3c(NC4CCC[C@@H]4OCc4ccc(F)cc4)ncnc32)[C@H](O)[C@@H]1O (stereo partly shown) [Compound 9] | 1870 nM | 11400 nM |  |  |  | 
7 | OC[C@H]1OC(n2cnc3c(NC4CCCCC4OCc4ccccc4)ncnc32)[C@H](O)[C@@H]1O (stereo partly shown) [Compound 4] | > 100000 nM |  |  |  |  | 

The next lines start with results.

Row | Ki [1] | Ki [2] | Ki [3] | Structure (SMILES) | return of IOP to baseline levels, time post dosing ([4]; topical single dose 200 mcg) | reduction of IOP ([4]; topical single dose 200 mcg in HPCD formulation, 2 hours post dosing) | changes in IOP relative to baseline after dosing (in words) ([4]; topical single dose 200 mcg)
8 | 3710 nM | 3780 nM |  | OC[C@H]1O[C@@H](n2cnc3c(N[C@@H]4CCC[C@H]4OCc4ccc(F)cc4)ncnc32)[C@H](O)[C@@H]1O [Compound 20, (2R,3R,4S,5R)-2-(6-((1R,2R)-2-(4-fluorobenzyloxy)cyclopentylamino)-9H-purin-9-yl)-5-(hydroxymethyl)tetrahydrofuran-3,4-diol] |  |  | 
9 | 1350 nM | 5320 nM | 2.79 nM | Cc1cccc(CO[C@H]2CCC[C@@H]2Nc2ncnc3c2ncn3[C@@H]2O[C@H](CO)[C@@H](O)[C@H]2O)c1 [Compound 6, (2R,3S,4R,5R)-2-(hydroxymethyl)-5-(6-((1S,2S)-2-(3-methylbenzyloxy)cyclopentylamino)-9H-purin-9-yl)tetrahydrofuran-3,4-diol] |  |  | 
10 | 2620 nM | 3370 nM | 2.65 nM | Cc1cccc(CO[C@@H]2CCC[C@H]2Nc2ncnc3c2ncn3[C@@H]2O[C@H](CO)[C@@H](O)[C@H]2O)c1 [Compound 17, (2R,3S,4R,5R)-2-(hydroxymethyl)-5-(6-((1R,2R)-2-(3-methylbenzyloxy)cyclopentylamino)-9H-purin-9-yl)tetrahydrofuran-3,4-diol] |  |  | do not show significant changes in IOP
11 | 2550 nM | 25400 nM | 29 nM | Cc1ccc(CO[C@H]2CCC[C@@H]2Nc2ncnc3c2ncn3[C@@H]2O[C@H](CO)[C@@H](O)[C@H]2O)cc1 [Compound 3, (2R,3S,4R,5R)-2-(hydroxymethyl)-5-(6-((1S,2S)-2-(4-methylbenzyloxy)cyclopentylamino)-9H-purin-9-yl)tetrahydrofuran-3,4-diol] |  |  | 
12 | 551 nM |  |  | OC[C@H]1O[C@@H](n2cnc3c(N[C@@H]4CCC[C@H]4OCc4cccc(I)c4)ncnc32)[C@H](O)[C@@H]1O [Compound 22, (2R,3S,4R,5R)-2-(hydroxymethyl)-5-(6-((1R,2R)-2-(3-iodobenzyloxy)cyclopentylamino)-9H-purin-9-yl)tetrahydrofuran-3,4-diol] |  |  | 
13 | 1290 nM |  |  | OC[C@H]1O[C@@H](n2cnc3c(N[C@H]4CCC[C@@H]4OCc4cccc(I)c4)ncnc32)[C@H](O)[C@@H]1O [Compound 11, (2R,3S,4R,5R)-2-(hydroxymethyl)-5-(6-((1S,2S)-2-(3-iodobenzyloxy)cyclopentylamino)-9H-purin-9-yl)tetrahydrofuran-3,4-diol] |  |  | do not show significant changes in IOP
